{"source": "paper PMC10340464", "about": "“Identification of a Novel SSTR3 Full Agonist for the Treatment of Nonfunctioning Pituitary Adenomas” (Cancers, 2023)", "test_system": "HA-SSTR2", "assay": "SSTR2 internalization in HEK293 cells, confocal microscopy", "type": "cell-based, human", "conditions": "1 µM agonist, 30 min 37 °C", "protocol": "HEK293 cells obtained from DSMZ (Braunschweig, Germany) were transfected with plasmid encoding […] HA-tagged SSTR2, SSTR3 or SSTR5 receptors.\nHEK293 cells stably expressing HA-tagged hSSTR cultures were preincubated with anti-HA antibody for 2 h at 4 °C and then exposed to 1 µM agonist for 30 min at 37 °C before fixing and further labeling with Alexa488-conjugated secondary antibody. After mounting with Roti®-MountFluorCare DAPI, cultures were examined using a Zeiss LSM510 META laser scanning confocal microscope (Zeiss, Jena, Germany) (see Supplementary Materials for details).\nGH produced by primary cultures was tested by ELISA assay using Rat Growth Hormone Biotrak Enzyme immunoassay Mouse/Rat Growth ELISA (DSL-10-72100) or Rat/Mouse Growth Hormone ELISA (Millipore EZRMGH-45K) diluting supernatants 1:20, according to manufacturer’s instructions. […]\nU2OS recombinant cell lines were obtained from Innoprot (Derio, Spain). […] Nuclei were stained using DAPI (2 μg/ml) and the ﬂuorescence was measured using a BD Pathway 855 High-Content Bioimager from Becton Dickinson. The receptor internalization was calculated using AttoVision Software. […]\nAgonist activity of test compounds was calculated relatively to positive control"}
{"smiles": "COc1cc2cccc(OC)c2cc1C[C@H]1NC(=O)[C@H](Cc2ccc(O)cc2)NC(=O)[C@@H]2C[C@@H](OC(=O)NCCN)CN2C(=O)[C@H](Cc2ccccc2)NC(=O)[C@H](Cc2ccc(OCc3ccccc3)cc2)NC(=O)[C@H](CCCCN)NC1=O", "note": "[ITF2984, Cyclo[Tyr(Bn)-Phe-Pro(4-OCONH(CH2)2NH2)-Tyr-3,8-diMeONal-Lys]]", "values": [{"measurement": "internalization of SSTR2 in transfected HEK293 cells", "result": "partial internalization"}]}
